Four molecules from US6600091B1, “Enzymes responsible for the metabolism of zeatin” (The State of Oregon acting by and through the State Board …, priority 1998, dated 2003) can be followed below.

The target of experiment [1] is T1, Recombinant Zeatin O-glucosyltransferase (Phaseolus lunatus, UniProt Q9ZSK5).
T1 construct: the polypeptide encoded by the ORF plus the 5′ untranslated region and the α-peptide from the cloning vector; alpha-peptide encoded by the cloning vector (33 amino acids, pZL1/ZipLox); made in house; host or cells: E. coli BL21(DE3) pLysS
T1 sequence (Q9ZSK5 1-459): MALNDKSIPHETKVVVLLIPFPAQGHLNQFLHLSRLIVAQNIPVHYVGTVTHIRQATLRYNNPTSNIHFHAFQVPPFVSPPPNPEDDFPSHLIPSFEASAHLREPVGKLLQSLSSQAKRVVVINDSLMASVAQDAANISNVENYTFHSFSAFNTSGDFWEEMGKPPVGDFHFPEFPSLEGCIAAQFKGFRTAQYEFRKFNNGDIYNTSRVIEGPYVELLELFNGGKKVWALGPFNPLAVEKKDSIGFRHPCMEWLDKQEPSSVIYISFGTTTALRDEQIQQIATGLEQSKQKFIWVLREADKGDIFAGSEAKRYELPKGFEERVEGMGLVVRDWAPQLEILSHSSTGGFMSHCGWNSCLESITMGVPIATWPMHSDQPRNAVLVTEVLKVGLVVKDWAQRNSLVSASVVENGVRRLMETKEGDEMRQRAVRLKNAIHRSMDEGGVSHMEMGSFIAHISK
The experiment is described as follows: Cytokinin conversion assay with recombinant zeatin O-glucosyltransferase (14C-cytokinin + glycosyl donor, products separated by HPLC). Format: biochemical, Phaseolous lunatus. As to the method: Isolation of recombinant zeatin O-glucosyltransferase proteins. To obtain recombinant proteins, purified plasmids were transformed into Epicurian Coli BL21(DE3) pLysS Competent cells (Stratagene, LaJolla, Calif.) following the recommended protocol. Colonies were selected on AMP-LB plates. An individual colony was grown overnight in SOC-AMP media and 0.5 ml of the culture was used to inoculate 50 mls of SOC-AMP media. […] After 4 hours cells were collected and frozen at −80° C. overnight. Cells were lysed the next day by thawing and resuspending in 0.5 ml of 0.2 M Tris pH 7.5 containing 1 mg/ml of lysozyme. DNAase (1 μg/10 μl sample) was added after a 10-min. cycle of freeze-thaw at −80° C. Soluble proteins were collected after centrifugation. Recombinant proteins were further purified on a DEAE anion exchange column using the Bio-Rad Biologic liquid chromatography system.
(§1) Assay for cytokinin conversion activity and analysis of reaction products. […] Briefly, ^14C-labeled cytokinins (specific activity of 24 mCi/mmol), glycosyl donor (3 mM of UDPG or UDPX), MgCl2 (0.05M) and ATP (0.5 mM) in 1 mM Tris, pH 8.0 were incubated with a specified amount of the recombinant protein at 27° C. […] The supernatant was concentrated to 100 μl in vacuo (Speed Vac Concentrator, Savant) and analyzed by HPLC using a reversed phase C18column.
(§2) The aqueous buffer consisted of 0.2M acetic acid adjusted to pH 3.5 with TEA. Samples were eluted with a linear gradient of methanol (5-50% over 90 minutes) in TEA buffer. The flow rate was 1 mL/min. and 0.5 mL fractions were collected. […] Radioactivity in these fractions was determined in Ready-Gel scintillation fluid (Beckman) with a Beckman LS 7000 scintillation counter.

For experiment [2], the target named is T2, Recombinant Protein Encoded by the ORF of Zeatin O-xylosyltranferase (Phaseolus vulgaris, UniProt P56725).
T2 construct: the ORF of the gene was excised from the pGem-T vector (Promega) using the restriction enzymes Not1 and Sal1; made in house; host or cells: E. coli BL21(DE3) pLysS
T2 sequence (P56725 1-454): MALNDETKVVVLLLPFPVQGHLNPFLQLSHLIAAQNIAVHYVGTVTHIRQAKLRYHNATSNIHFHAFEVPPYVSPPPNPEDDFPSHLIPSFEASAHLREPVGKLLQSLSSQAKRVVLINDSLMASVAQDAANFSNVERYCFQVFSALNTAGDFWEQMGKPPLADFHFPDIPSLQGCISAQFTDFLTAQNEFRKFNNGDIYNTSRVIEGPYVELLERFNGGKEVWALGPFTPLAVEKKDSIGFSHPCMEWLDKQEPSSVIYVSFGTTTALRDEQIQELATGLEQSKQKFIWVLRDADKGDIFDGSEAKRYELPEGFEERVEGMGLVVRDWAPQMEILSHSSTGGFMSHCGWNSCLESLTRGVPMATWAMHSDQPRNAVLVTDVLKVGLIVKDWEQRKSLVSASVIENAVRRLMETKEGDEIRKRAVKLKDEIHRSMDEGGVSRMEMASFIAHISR
Briefly: Cytokinin conversion assay with recombinant protein encoded by the ORF of zeatin O-xylosyltransferase (radio-labeled cytokinin + glycosyl donor, HPLC). It is filed as biochemical, Phaseolous vulgaris. As to conditions: for Product (%) / Product CPM / Substrate Left (%) / Substrate Left CPM: 125 μl protein from culture supernatant, 4 hrs.
Excerpt: Isolation of recombinant zeatin O-xylosyltransferase proteins. Zeatin O-xylosyltransferase protein was purified using the same techniques as described above. Briefly, the coding sequences were ligated into an IPTG inducible plasmid which was transformed into Epicurian Coli BL21(DE3) pLysS Competent cells (Stratagene, LaJolla, Calif.). IPTG was then used to induce protein. Cells were subsequently lysed and the protein was separated out through the use of ion exchange chromatography.
as §1, §2
Isolation and authentication of zeatin O-xylosyltransferase cDNA clones. To assess the enzyme activity of the protein encoded by zeatin O-xylosyltransferase, the ORF of the gene was excised from the pGem-T vector (Promega) using the restriction enzymes Not1 and Sal1. The resulting fragment was then ligated into the Not1/Sal1 site of the pZipLox plasmid.

Where [3] appears, read: glycosyl donor UDPG, B: DEAE-purified proteins (4 μg), approx. 0.5 nmole 14C-cytokinin.
[4] abbreviates: glycosyl donor UDPG, A: 200 μl supernatant from lysed cells, approx. 1 nmole 14C-labeled zeatin, 2 hr.
The mark [5] stands for this setting: glycosyl donor UDPX, A: 200 μl supernatant from lysed cells, approx. 1 nmole 14C-labeled zeatin, 2 hr.

Consider `CC(CO)CCNc1ncnc2nc[nH]c12` (stereo not drawn) [DHZ, dihydrozeatin], for which the “Formation of O-glucosyldihydrozeatin (in words)” value in experiment [1] (DEAE-column purified recombinant protein) is listed as “trace”. In addition, in experiment [1] (setting [3]), the “Product (%)” value worked out at 1%, the “Product CPM” value turned out to be 329 CPM, the “Substrate Left (%)” value is 99% and the “Substrate Left CPM” value stood at 24178 CPM. In experiment [2] (glycosyl donor UDPX), the “Product (%)” value was 78%, the “Product CPM” value came to 33237 CPM, the “Substrate Left (%)” value is listed as 22% and the “Substrate Left CPM” value worked out at 9244 CPM.

For the molecule `C/C(=C\CNc1ncnc2c1ncn2[C@@H]1O[C@H](CO)[C@@H](O)[C@H]1O)CO` [RZ, ribosylzeatin], in experiment [2] (glycosyl donor UDPX), the “Substrate Left (%)” value was 100% and the “Substrate Left CPM” value turned out to be 39238 CPM.

In the case of `C/C(=C\CNc1ncnc2[nH]cnc12)CO` [Z, trans-zeatin], the “Product (%)” value is 100% in experiment [1] (setting [4]), 14% in experiment [1] (setting [3]), 18% in experiment [1] (setting [5]) and 82% in experiment [2] (glycosyl donor UDPX). Besides, the “Product CPM” value in experiment [1] (setting [4]) is recorded as 39715 CPM; in experiment [1] (setting [3]), 3731 CPM; in experiment [1] (setting [5]), 4956 CPM; in experiment [2] (glycosyl donor UDPX), 35838 CPM. Moreover, the “Substrate Left (%)” value in experiment [1] (setting [4]) is given as 0 (0%); in experiment [1] (setting [3]), 86%; in experiment [1] (setting [5]) it was 82%; in experiment [2] (glycosyl donor UDPG), 100%; in experiment [2] (glycosyl donor UDPX), 18%. Also, the “Substrate Left CPM” value is reported as 0 (0%) CPM in experiment [1] (setting [4]); 23115 CPM in experiment [1] (setting [3]); 23078 CPM in experiment [1] (setting [5]); 41679 CPM in experiment [2] (glycosyl donor UDPG); 7768 CPM in experiment [2] (glycosyl donor UDPX). The “Conversion to O-glucosylzeatin (in words)” value in experiment [1] (glycosyl donor UDPG, supernatant with recombinant protein, listed as 14C-zeatin) is reported as “efficiently converted”. Further, the “Conversion of zeatin (in words)” value in experiment [2] (UDPG as the sugar donor) was “no detectable conversion”.

For the molecule `C/C(=C/CNc1ncnc2nc[nH]c12)CO` [cis-Z, Cis-zeatin], in experiment [2] (glycosyl donor UDPX), the “Substrate Left (%)” value was 100% and the “Substrate Left CPM” value was 29460 CPM.
